From ChEMBL document CHEMBL1201862, “PubChem BioAssay data set” (2004)
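Grown in 96-well plates, cells were treated for 48 hours with each compound at five concentrations. Insufficient inhibition: endpoint recorded as highest concentration tested. Abbreviation: GI50, concentration required for 50% inhibition of growth.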 Calls of active or inactive are those of the source. No stated cut-off is given here; in the data, active = GI50 up to about 1.1 µM and inactive = higher.

How the values were obtained:
Experiment in all cases: growth of human tumour cells (NCI), 48 h
786-0 = tested on: 786-0
A498 = tested on: A498
A549 = tested on: A549
ACHN = tested on: ACHN
BT-549 = tested on: BT-549
CAKI-1 = tested on: CAKI-1
CCRF-CEM = tested on: CCRF-CEM
COLO 205 = tested on: COLO 205
DU-145 = tested on: DU-145
EKVX = tested on: EKVX
HCC 2998 = tested on: HCC 2998
HCT-116 = tested on: HCT-116
HCT-15 = tested on: HCT-15
HL-60 = tested on: HL-60
HOP-62 = tested on: HOP-62
HOP-92 = tested on: HOP-92
HT-29 = tested on: HT-29
Hs-578T = tested on: Hs-578T
IGROV-1 = tested on: IGROV-1
K562 = tested on: K562
KM12 = tested on: KM12
LOX IMVI = tested on: LOX IMVI
M14 = tested on: M14
MCF7 = tested on: MCF7
MDA-MB-231 = tested on: MDA-MB-231
MDA-MB-435 = tested on: MDA-MB-435
MDA-N = tested on: MDA-N
Malme-3M = tested on: Malme-3M
NCI-H226 = tested on: NCI-H226
NCI-H23 = tested on: NCI-H23
NCI-H460 = tested on: NCI-H460
NCI-H522 = tested on: NCI-H522
NCI/ADR-RES = tested on: NCI/ADR-RES
OVCAR-3 = tested on: OVCAR-3
OVCAR-4 = tested on: OVCAR-4
OVCAR-5 = tested on: OVCAR-5
OVCAR-8 = tested on: OVCAR-8
PC-3 = tested on: PC-3
RPMI-8226 = tested on: RPMI-8226
RXF 393 = tested on: RXF 393
SF-268 = tested on: SF-268
SF-295 = tested on: SF-295
SF-539 = tested on: SF-539
SK-MEL-28 = tested on: SK-MEL-28
SK-MEL-2 = tested on: SK-MEL-2
SK-MEL-5 = tested on: SK-MEL-5
SK-OV-3 = tested on: SK-OV-3
SN12C = tested on: SN12C
SNB-19 = tested on: SNB-19
SNB-75 = tested on: SNB-75
SW-620 = tested on: SW-620
T47D = tested on: T47D
TK-10 = tested on: TK-10
U-251 = tested on: U-251
UACC-257 = tested on: UACC-257
UACC-62 = tested on: UACC-62
UO-31 = tested on: UO-31
MOLT-4 = tested on: MOLT-4
SR = tested on: SR

Cc1csc2nc(-c3cccc([N+](=O)[O-])c3)c(/C=N/N=C(N)N)n12
GI50 (786-0): 1.57 µM (inactive) | GI50 (A498): 0.933 µM (active) | GI50 (A549): 1.72 µM (inactive) | GI50 (ACHN): 1.8 µM (inactive) | GI50 (BT-549): 1.1 µM (active) | GI50 (CAKI-1): 2.73 µM (inactive) | GI50 (CCRF-CEM): 1.92 µM (inactive) | GI50 (COLO 205): 1.78 µM (inactive) | GI50 (DU-145): 2.19 µM (inactive) | GI50 (EKVX): 1.55 µM (inactive) | GI50 (HCC 2998): < 0.01 µM (active) | GI50 (HCT-116): 1.7 µM (inactive) | GI50 (HCT-15): 1.71 µM | GI50 (HL-60): 1.25 µM (inactive) | GI50 (HOP-62): 1.71 µM (inactive) | GI50 (HOP-92): 0.0968 µM (active) | GI50 (HT-29): 1.81 µM (inactive) | GI50 (Hs-578T): 2.18 µM (inactive) | GI50 (IGROV-1): 1.81 µM (inactive) | GI50 (K562): 1.98 µM (inactive) | GI50 (KM12): 1.68 µM (inactive) | GI50 (LOX IMVI): 1.81 µM (inactive) | GI50 (M14): 1.71 µM (inactive) | GI50 (MCF7): 1.82 µM (inactive) | GI50 (MDA-MB-231): 1.55 µM (inactive) | GI50 (MDA-MB-435): 1.66 µM (inactive) | GI50 (MDA-N): 1.67 µM (inactive) | GI50 (Malme-3M): 1.72 µM (inactive) | GI50 (NCI-H226): 1.64 µM (inactive) | GI50 (NCI-H23): 1.71 µM (inactive) | GI50 (NCI-H460): 3.2 µM (inactive) | GI50 (NCI-H522): 1.83 µM (inactive) | GI50 (NCI/ADR-RES): 6.27 µM (inactive) | GI50 (OVCAR-3): 1.62 µM (inactive) | GI50 (OVCAR-4): 1.78 µM (inactive) | GI50 (OVCAR-5): 1.63 µM (inactive) | GI50 (OVCAR-8): 1.74 µM (inactive) | GI50 (PC-3): 1.63 µM (inactive) | GI50 (RPMI-8226): 1.86 µM (inactive) | GI50 (RXF 393): 1.7 µM (inactive) | GI50 (SF-268): 1.82 µM (inactive) | GI50 (SF-295): 1.69 µM (inactive) | GI50 (SF-539): 2.29 µM (inactive) | GI50 (SK-MEL-28): 1.71 µM (inactive) | GI50 (SK-MEL-2): 1.77 µM (inactive) | GI50 (SK-MEL-5): 1.55 µM (inactive) | GI50 (SK-OV-3): 1.82 µM (inactive) | GI50 (SN12C): 1.69 µM (inactive) | GI50 (SNB-19): 1.9 µM (inactive) | GI50 (SNB-75): 1.75 µM (inactive) | GI50 (SW-620): 1.71 µM (inactive) | GI50 (T47D): 1.87 µM (inactive) | GI50 (TK-10): 1.78 µM (inactive) | GI50 (U-251): 1.67 µM (inactive) | GI50 (UACC-257): 1.78 µM (inactive) | GI50 (UACC-62): 1.46 µM (inactive) | GI50 (UO-31): 1.39 µM (inactive)

C=CCOC(=O)c1c(C)[n+]([O-])c2cc(Cl)c(Cl)cc2[n+]1[O-]
GI50 (786-0): 29.4 µM (inactive) | GI50 (A498): 27.5 µM (inactive) | GI50 (A549): 23 µM (inactive) | GI50 (ACHN): 23.6 µM (inactive) | GI50 (BT-549): 34.4 µM (inactive) | GI50 (CAKI-1): 19.2 µM (inactive) | GI50 (CCRF-CEM): 17.3 µM (inactive) | GI50 (COLO 205): 17.9 µM (inactive) | GI50 (DU-145): 29.6 µM (inactive) | GI50 (EKVX): 18.8 µM (inactive) | GI50 (HCC 2998): 12.9 µM (inactive) | GI50 (HCT-116): 17.8 µM (inactive) | GI50 (HCT-15): 13.5 µM | GI50 (HL-60): 16.6 µM (inactive) | GI50 (HOP-62): 25.5 µM (inactive) | GI50 (HOP-92): 13.7 µM (inactive) | GI50 (HT-29): 18.2 µM (inactive) | GI50 (Hs-578T): 27.5 µM (inactive) | GI50 (IGROV-1): 4.62 µM (inactive) | GI50 (K562): 27.9 µM (inactive) | GI50 (KM12): 29.7 µM (inactive) | GI50 (LOX IMVI): 15.5 µM (inactive) | GI50 (M14): 18.2 µM (inactive) | GI50 (MCF7): 20.5 µM (inactive) | GI50 (MDA-MB-231): 24 µM (inactive) | GI50 (MDA-MB-435): 19.8 µM (inactive) | GI50 (MDA-N): 20.6 µM (inactive) | GI50 (MOLT-4): 15.1 µM (inactive) | GI50 (Malme-3M): 28.5 µM (inactive) | GI50 (NCI-H226): 19.1 µM (inactive) | GI50 (NCI-H23): 14.4 µM (inactive) | GI50 (NCI-H460): 18.7 µM (inactive) | GI50 (NCI-H522): 12.4 µM (inactive) | GI50 (NCI/ADR-RES): 20.6 µM (inactive) | GI50 (OVCAR-3): 20.1 µM (inactive) | GI50 (OVCAR-4): 7.23 µM (inactive) | GI50 (OVCAR-5): 30.4 µM (inactive) | GI50 (OVCAR-8): 19.4 µM (inactive) | GI50 (PC-3): 31.6 µM (inactive) | GI50 (RPMI-8226): 12.4 µM (inactive) | GI50 (SF-268): 14.7 µM (inactive) | GI50 (SF-295): 32.6 µM (inactive) | GI50 (SF-539): 21.8 µM (inactive) | GI50 (SK-MEL-28): 16.1 µM (inactive) | GI50 (SK-MEL-2): 13.6 µM (inactive) | GI50 (SK-MEL-5): 19 µM (inactive) | GI50 (SK-OV-3): 28.8 µM (inactive) | GI50 (SN12C): 24.3 µM (inactive) | GI50 (SNB-19): 74.8 µM (inactive) | GI50 (SR): 4.54 µM (inactive) | GI50 (T47D): 18.9 µM (inactive) | GI50 (TK-10): 29.4 µM (inactive) | GI50 (U-251): 31.8 µM (inactive) | GI50 (UACC-257): 18.7 µM (inactive) | GI50 (UACC-62): 20.2 µM (inactive) | GI50 (UO-31): 23.3 µM (inactive)
